US12059405B1, “3-(2,4,5-tris(4-chlorophenyl)-1H-imidazol-1-yl) propanoic acid as an antimicrobial compound” (KING FAISAL UNIVERSITY, priority 2023, dated 2024)

How the values were obtained:
Assay type in all cases: cell-based
Aspergillus flavus = experiment: Agar plate disc-diffusion, antifungal, Aspergillus flavus; details: Sabouraud's dextrose agar, 37° C., 72 hours, DMSO control zone subtracted
Procedure: (§1) The agar plate disc-diffusion method was applied. […] The discs were then placed onto the surface of agar plates (nutrient agar for bacteria and Sabouraud's dextrose agar for fungi) seeded with the test organism. Each plate contained 15 mL of the agar medium, previously seeded with 0.2 mL of the broth culture of each organism pregrown for 18 hours. The plates were incubated at 37° C. for 48 hours, and 72 hours for fungi. The inhibition zones was measured in mm. Discs impregnated with DMSO were used as a control, and its inhibition zone was subtracted from the tested compound actual inhibition zone.

Pseudomonas aeruginosa = experiment: Agar plate disc-diffusion, antibacterial, Pseudomonas aeruginosa; details: nutrient agar, 37° C., 48 hours, DMSO control zone subtracted
Procedure: as §1

[1] = test system: Chrysosporium keratinophilum; experiment: Agar plate disc-diffusion, antifungal, Chrysosporium keratinophilum; details: Sabouraud's dextrose agar, 37° C., 72 hours, DMSO control zone subtracted
Procedure: as §1

Staphylococcus aureus = experiment: Agar plate disc-diffusion, antibacterial, Staphylococcus aureus; details: nutrient agar, 37° C., 48 hours, DMSO control zone subtracted
Procedure: as §1

Escherichia coli = experiment: Agar plate disc-diffusion, antibacterial, Escherichia coli; details: nutrient agar, 37° C., 48 hours, DMSO control zone subtracted
Procedure: as §1

Bacillus cereus = experiment: Agar plate disc-diffusion, antibacterial, Bacillus cereus; details: nutrient agar, 37° C., 48 hours, DMSO control zone subtracted
Procedure: as §1

[2] = A = concentration of comp. = 10,000 μL
[3] = B = concentration of comp. = 30,000 μL
[4] = C = concentration of comp. = 50,000 μL

## O=C(O)CCn1c(-c2ccc(Cl)cc2)nc(-c2ccc(Cl)cc2)c1-c1ccc(Cl)cc1 [V, 3-(2,4,5-tris(4-chlorophenyl)-1H-imidazol-1-yl)propanoic acid]
Aspergillus flavus; [2]
  inhibition zone, Aspergillus flavus, A: 19 mm
Aspergillus flavus; [3]
  inhibition zone, Aspergillus flavus, B: 24 mm
Aspergillus flavus; [4]
  inhibition zone, Aspergillus flavus, C: 32 mm
Pseudomonas aeruginosa; [2]
  inhibition zone, Pseudomonas aeruginosa, A: 25 mm
Pseudomonas aeruginosa; [3]
  inhibition zone, Pseudomonas aeruginosa, B: 26 mm
Pseudomonas aeruginosa; [4]
  inhibition zone, Pseudomonas aeruginosa, C: 37 mm
[1]; [2]
  inhibition zone, Chrysosporium keratinophilum, A: 25 mm
[1]; [3]
  inhibition zone, Chrysosporium keratinophilum, B: 26 mm
[1]; [4]
  inhibition zone, Chrysosporium keratinophilum, C: 45 mm
Staphylococcus aureus; [2]
  inhibition zone, Staphylococcus aureus, A: 19 mm
Staphylococcus aureus; [3]
  inhibition zone, Staphylococcus aureus, B: 23 mm
Staphylococcus aureus; [4]
  inhibition zone, Staphylococcus aureus, C: 36 mm
Escherichia coli; [2]
  inhibition zone, Escherichia coli, A: 27 mm
Escherichia coli; [3]
  inhibition zone, Escherichia coli, B: 36 mm
Escherichia coli; [4]
  inhibition zone, Escherichia coli, C: 48 mm
Bacillus cereus; [2]
  inhibition zone, Bacillus Cereus, A: 21 mm
Bacillus cereus; [3]
  inhibition zone, Bacillus Cereus, B: 29 mm
Bacillus cereus; [4]
  inhibition zone, Bacillus Cereus, C: 38 mm
